Results published in patent US12691101B2, “Compound and method for preventing or treating of respiratory diseases comprising the same as an active ingredient” (YONSEI UNIVERSITY, UNIVERSITY - INDUSTRY FOUNDATION (UIF), priority 2019, dated 2026).

Assays:
pendrin mRNA = assay: Pendrin mRNA expression in LPS-treated hAEC, real-time PCR; type: cell-based, human
Experimental: The total messenger RNA (mRNA) was extracted using TRIzol reagent (Invitrogen, Carlsbad, CA, USA), and was reverse-transcribed using a random hexamer primer, an oligo(dT) primer and SuperScript® III reverse transcriptase (Invitrogen). Quantitative real-time PCR was performed using StepOnePlus Real-Time PCR system (Applied Biosystems, Foster City, CA, USA) and Thunderbird SYBR qPCR mix (Tokyobo, Osaka, Japan). Thermal cycling conditions included the initial stage at 95° C. for 5 minutes, and subsequent 40 cycles at 95° C. for 10 seconds, at 55° C. for 20 seconds and at 72° C. for […].

pendrin [1] = assay: Pendrin protein expression in LPS-treated human alveolar epithelial cells (hAEC); type: cell-based
Experimental: The lung tissue was harvested and dissolved in a homogenization buffer (PRO-PREP™ extraction solution, iNtRON Biotechnology). The sample was centrifuged at 4° C. for 30 minutes at 13000 g. The supernatant protein concentration was determined by BCA analysis (Thermo Fisher Scientific). The same amount of protein was separated by SDS/PAGE and transferred to a nitrocellulose membrane. The membrane was blocked with 5% skim milk in TBS-T (TBS (170-6435, Bio-Rad Laboratories) and 1% Tween-20 (170-6531, Bio-Rad Laboratories) for 1 hours. Then, the membrane was cultured overnight with the primary antibody diluted with 5% skim milk in TBS-T at 4° C. After washing with TBS-T, the blot was cultured with horseradish peroxidase-combined secondary antibody and 5% skim milk in TBS-T at a room temperature for 1 hour, and then developed using Super-Signal West Pico chemiluminescence detection kit. The antibody used in the present invention includes rabbit SLC26A4 (ab98091, abcam), mouse phospho-Iκ (9246, Cell Signaling Technology), mouse Iκ (4814, Cell Signaling Technology), and rabbit α-tubulin (PA5-16891, Cell Signaling Technology). Western blot quantization was performed using ImageJ (Image Processing and Analysis in Java; NIH, USA) software.

mouse pendrin (mPDS) = biological target: T1, mouse pendrin (mPDS) (Mus musculus, UniProt Q9R155); assay: Mouse pendrin-mediated Cl^−/I^− exchange activity in CHO-K1 cells; type: cell-based
T1 construct: expressed in transfected cells; host or cells: CHO-K1
T1 sequence (Q9R155 whole entry): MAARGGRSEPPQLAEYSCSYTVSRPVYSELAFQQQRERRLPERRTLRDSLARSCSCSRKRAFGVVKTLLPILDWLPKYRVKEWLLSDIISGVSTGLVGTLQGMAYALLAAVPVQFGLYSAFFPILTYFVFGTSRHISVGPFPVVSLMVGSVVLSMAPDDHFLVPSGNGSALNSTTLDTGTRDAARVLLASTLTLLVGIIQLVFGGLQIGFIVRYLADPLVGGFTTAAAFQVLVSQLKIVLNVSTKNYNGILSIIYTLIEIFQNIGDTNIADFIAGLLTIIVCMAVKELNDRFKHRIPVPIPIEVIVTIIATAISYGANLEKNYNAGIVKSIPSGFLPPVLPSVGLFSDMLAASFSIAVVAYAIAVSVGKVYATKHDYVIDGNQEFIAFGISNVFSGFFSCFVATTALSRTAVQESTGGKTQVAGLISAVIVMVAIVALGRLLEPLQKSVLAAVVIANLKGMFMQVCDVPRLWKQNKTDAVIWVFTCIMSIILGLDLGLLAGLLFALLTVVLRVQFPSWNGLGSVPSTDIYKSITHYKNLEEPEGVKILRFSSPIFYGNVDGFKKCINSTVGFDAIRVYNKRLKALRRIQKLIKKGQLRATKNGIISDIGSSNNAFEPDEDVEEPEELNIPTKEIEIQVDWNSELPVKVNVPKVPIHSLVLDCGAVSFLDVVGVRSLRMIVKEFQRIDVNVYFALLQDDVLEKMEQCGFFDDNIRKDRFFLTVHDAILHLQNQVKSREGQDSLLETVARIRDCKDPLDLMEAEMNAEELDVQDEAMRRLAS
Experimental: (A) The inhibition of mouse pendrin (mPDS)-mediated Cl^−/I^− exchange activity by F56 was measured in CHO-K1 cells (mean±S.E., n=5). The indicated concentration of F56 was pretreated for 10 minutes. (B) Summary of dose-response for inhibition of the human pendrin (hPDS)-mediated (closed circle, FIG. (a), C) and mPDS-mediated (open circle) Cl^−/I^− exchange activity. (C-F) Representative traces of intracellular pH in CHO-K1 cells expressing SLC26A3, SLC26A6, SLC26A7 and SLC26A9 were shown. The application of Cl^− free solution induced intracellular alkalization by Cl^−/HCO3^− exchange. The indicated concentration of F56 was pretreated for 10 minutes. (G) the effect of F56 (100 μM) on the CFTR chloride channel activity was measured in FRT cells expressing human CFTR. The CFTR current was activated by 20 μM forskolin and was inhibited by 10 μM CFTRinh-172. (H) The effect of F56 (100 μM) on the AN01 chloride channel activity was measured in FRT cells expressing human AN01. Before 10 minutes prior to AN01 activation by 100 μM ATP, F56 was added. (Right) Peak current summary (mean±S.E., n=3). (I) The effect of F56 on the hERG (Kv11.1) potassium channel activity was measured in HEK293T cells expressing human Kv11.1 (mean±S.E., n=4). […] (J) The effect of F56 on the 5-HT2A channel activity was measured in FRT cells expressing human 5-HT2A (mean±S.E., n=4). […]

pendrin [2] = assay: Protein expression measurement in IL-4-treated HNE cells, pendrin; type: cell-based, human; conditions: long-term treatment
Experimental: CHO-K1 and HNE cells were lysed with a cytolytic buffer (50 mM Tris-HCl, pH 7.4, 1% Nonidet P-40, 0.25% sodium deoxycholate, 150 mM NaCl, 1 mM EDTA, 1 mM Na3VO4, and protease inhibiting mixture). The total cell lysates were under centrifugation at 15,000×g for 10 minutes at 4° C. to remove cellular debris and the same amount (50 μg protein or 5 μg protein/lane) of supernatant protein was isolated on 4-12% Tris-glycine precast gel (KOMA BIOTECH, Seoul, Korea) and transferred to PVDF membrane (Millipore, Billerica, MA, USA). The membrane was blocked with 5% fat-free skim milk in TBS containing 0.1% Tween 20 (TBST) or 5% bovine serum albumin in TBS at a room temperature for 1 hour. Then, the membrane was cultured at 4° C. overnight with a primary antibody against pendrin (sc-50346; Santa Cruz Biotechnology, Santa Cruz, CA, USA), NF-κB p65 (4764S; Cell Signaling Technology, Danvers, MA, USA), p-NF-κB p65 (3033S; Cell Signaling Technology), IkBα (9242S; Cell Signaling Technology), p-IkBα (9141S; Cell Signaling Technology), β-actin (sc-47778; Santa Cruz Biotechnology), or AN01 (ab64085; Abeam). After washing with 0.05% Tween 20 (TBST) in PBS, the blot was additionally cultured with a secondary antibody (Cell Signaling Technology, Danvers, MA) at a room temperature for 60 minutes. […]

SCN^− transport = assay: Epithelial SCN^− transport in IL-4-treated HNE cells; type: cell-based, human; conditions: 30 μM, 30 minutes
Experimental: Nasal epithelial cells were plated on a transwell permeable supporter and cultured in ALI (air-liquid interface) for 14 days. After completely differentiated epithelial cells were cultured with IL-4 (Invitrogen, 10 ng/mL) for 48 hours, F56 (30 μM) or vehicle was added for 30 minutes. The transwell insert having cells was washed with PBS and the basal side was treated with 1 mL PBS containing 10 mM glucose and 5 μCi S^14CN (total concentration SCN^−: 86 μM). The apical side of the transwell was filled with 0.5 mL PBS containing 5 μM amiloride to block epithelial sodium. Subsequently, the apical fluid was collected every 5 minutes and placed in scintillation vials for evaluation of radioactivity.

inhibition of mouse versus human pendrin-mediated exchange (mouse pendrin (mPDS)): almost the same efficacy
Compound: CC(C)(C)c1ccc(C2=NC(=Cc3cccs3)C(=O)O2)cc1 [F56, 2-(4-(tert-butyl)phenyl)-4-(thiophen-2-ylmethylene)oxazol-5(4H)-one]
mRNA expression level of pendrin (pendrin mRNA): did not change | protein expression level of pendrin (pendrin [1]): reduced | pendrin protein expression level (pendrin [2]): strongly reduced | SCN^− concentration on the apical surface (SCN^− transport): inhibited
